Results reported in article PMC6017909, “Synthesis and Evaluation of the Tumor Cell Growth Inhibitory Potential of New Putative HSP90 Inhibitors” (Molecules : A Journal of Synthetic Chemistry and Natural …, 2018).

What was measured:
A431 = experiment: Cell-counting assay, 72-h drug exposure; type: cell-based; conditions: Homo sapiens, A-431, read-out: Cell Growth Inhibitory Activity A431 IC50 72 h
Description: (§1) For the cytotoxic activity studies and determination of GI50 concentrations in three different tumor cell lines, the cell culture conditions are described in Section 3.5. For the studies on the effect on % viable cells, cell cycle, cellular proliferation, and apoptosis, culture conditions are described in Section 3.6.1. For the remaining studies, the epithelial carcinoma cell line A431 and the non-small cell lung carcinoma cell line NCI-H460 were routinely grown in RPMI 1640 (Lonza, Vierviers, Belgium), supplemented with 10% (v/v) heat-inactivated fetal bovine serum (FBS, GIBCO, Invitrogen, Paisley, UK). The human peritoneal mesothelioma cell line STO was kindly provided by Dr. N. Zaffaroni (IRCCS Istituto Nazionale Tumori, Milan, Italy) and grown in 50/50 DMEM-Ham’s F12 medium (Lonza, Vierviers, Belgium), supplemented with 10% (v/v) heat-inactivated foetal bovine serum and 2 mM L-glutamine (L-Gln). All cell lines were maintained at 37 °C in a 5%/95% CO2/air atmosphere. All the compounds tested were freshly prepared by dissolving powder in dimethylsulfoxide (DMSO) (BDH Prolabo, Milan, Italy) and following dilution in culture medium. Cells were incubated with drugs for 48 h or 72 h (unless otherwise stated) at 37 °C in culture medium supplemented with 10% (v/v) heat-inactivated FBS; drug concentrations used for each assay and duration of treatments are reported in Legends to Figures.
(§2) Cellular sensitivity to drugs was evaluated by a cell-counting assay after 72-h drug exposure. Cells in the logarithmic phase of growth were seeded in duplicate into 6-well plates. Twenty-four hours after seeding, the drug was added to the medium. Cells were harvested 72 h after drug exposure and counted with a cell counter.

STO = experiment: Cell-counting assay, 72-h drug exposure; type: cell-based; conditions: Homo sapiens, read-out: Cell Growth Inhibitory Activity STO IC50 72 h
Description: as §1, §2

NCI-H460 [1] = experiment: Apoptosis, Annexin V-FITC/PI flow cytometry; type: cell-based, human; conditions: for % Apoptosis: 48 h, sum of early and late apoptosis; for Induction of apoptosis at cytotoxic concentrations: GI50 and 1.5× GI50, 48 h, Annexin V and propidium iodide
Experimental: NCI-H460 cells were plated in 6-well plates (1 × 10^5 cells/well) in RPMI-1640 medium with UltraGlutamine I and 25 mM Hepes (Lonza) supplemented with 10% FBS (PAA) at 37 °C in a humidified incubator with 5% CO2 for 24 h. […] These concentrations corresponded respectively to 5.2 μM and 7.8 μM for compound 5 and to 3.2 μM and 4.8 μM for compound 8. Cells were also incubated with medium only (Blank) or with the vehicle (solvent, H2O), corresponding to the highest concentration used when testing the compounds. Following treatment with the compounds, cells were further processed as follows. Following 48 h treatment, the levels of apoptosis were assessed using the “Human AnnexinV-FITC/PI apoptosis” kit (Bender MedSystems, Wien, Austria) as previously described. Briefly, cell pellets were resuspended in binding buffer and further incubated with Annexin V-FITC and with propidium iodide. Samples were analyzed in a FACSCalibur flow cytometer (BD Biosciences, Erembodegem, Belgium), plotting at least 15,000 events and using the FlowJo 7.6.5 software (Tree Star, Inc., Ashland, OR, USA).

NCI-H460 [2] = experiment: Cellular proliferation, BrdU incorporation assay; type: cell-based, human; conditions: 48 h
Experimental: NCI-H460 cells were plated in 6-well plates (1 × 10^5 cells/well) in RPMI-1640 medium with UltraGlutamine I and 25 mM Hepes (Lonza) supplemented with 10% FBS (PAA) at 37 °C in a humidified incubator with 5% CO2 for 24 h. […] These concentrations corresponded respectively to 5.2 μM and 7.8 μM for compound 5 and to 3.2 μM and 4.8 μM for compound 8. Cells were also incubated with medium only (Blank) or with the vehicle (solvent, H2O), corresponding to the highest concentration used when testing the compounds. Following treatment with the compounds, cells were further processed as follows. Following 47 h treatment, cells were further incubated with 10 μM bromodeoxyuridine (BrdU; Sigma) for 1 h. Cells were then trypsinized and fixed in 4% paraformaldehyde (in PBS) for 30 min. Cytopsins were prepared and a 20 min denaturation step was carried out by incubating slides in 2 M HCl. Following incubation with mouse anti-BrdU primary antibody (1/10, Dako) for 1 h at room temperature (RT), cells were further incubated with anti-mouse-Ig-FITC (1/100, Dako) for 30 min, at RT [21]. Slides were then mounted with Vectashield mounting medium with DAPI (Vector Laboratories). The percentage of BrdU incorporating cells was determined by counting a minimum of 500 cells per slide (except for one experiment in which due to technical difficulties less cells were counted when testing the compound 8) using a fluorescence microscope (DM2000; Leica, Wetzlar, Germany ).

[3] = tested on: HSP90 client proteins in A431 cells; experiment: HSP90 client protein levels by Western blot; type: cell-based, human; conditions: 24 h
Description: as §1
(§3) Total cell lysates were prepared as described previously. Primary antibodies used in this study are: anti-Raf-1 and anti-CDK4 (Santa Cruz Biotechnology Inc., Santa Cruz, CA, USA), anti-Survivin (Abcam, Cambridge, UK), anti-Akt (Transduction Laboratories, Lexington, KY, USA), and anti-Actin Sigma Chemical Co., St. Louis, MO, USA).

[4] = tested on: HSP90 client proteins in STO cells; experiment: HSP90 client protein levels by Western blot; type: cell-based, human; conditions: 24 h
Description: as §1, §3

Structure (SMILES) | IC50 (A431) [nM] | IC50 (STO) [nM] | % Apoptosis (NCI-H460 [1]; 5.2 μM, Blank 7.0 ± 0.6) [%] | % Apoptosis (NCI-H460 [1]; 7.8 μM, Blank 7.0 ± 0.6) [%] | Induction of apoptosis at cytotoxic concentrations (NCI-H460 [1]) | Percentage of BrdU-incorporating cells (NCI-H460 [2]; 1.5× GI50 (7.8 μM), untreated cells 32%) [%] | Percentage of BrdU-incorporating cells (NCI-H460 [2]; GI50 (5.2 μM), untreated cells 32%) [%] | CDK4 protein level ([3]; 5.4 μM) | Survivin protein level ([3]; 5.4 μM) | CDK4 protein level ([4]; 2.7 μM) | Survivin protein level ([4]; 2.7 μM) | % Apoptosis (NCI-H460 [1]; 3.2 μM, Blank 5.2 ± 0.9) [%] | % Apoptosis (NCI-H460 [1]; 4.8 μM, Blank 5.2 ± 0.9) [%] | Percentage of BrdU-incorporating cells (NCI-H460 [2]; 1.5× GI50 (4.8 μM), untreated cells 31%) [%] | Percentage of BrdU-incorporating cells (NCI-H460 [2]; GI50 (3.2 μM), untreated cells 31%) [%] | Akt protein level ([3]; 2.6 μM) | EGFR protein level ([3]; 2.6 μM) | RAF protein level ([3]; 2.6 μM) | Survivin protein level ([3]; 2.6 μM, compared with STO cells) | Survivin protein level ([4]; 2.6 μM)
O=c1c2ccccc2oc2c[n+](Cc3ccccc3)ccc12.[Br-] [Compound 5, 2-Benzyl-10-oxo-10H-9-oxa-2-azonia-anthracene bromide] | 1360 ± 50 | 2700 ± 800 | 7.2 ± 1.4 | 7.3 ± 0.9 | did not induce apoptosis | 22 | 25 | almost complete downregulation | partial downregulation | almost complete downregulation | partial downregulation |  |  |  |  |  |  |  |  | 
O=c1c2ccccc2sc2c[n+](Cc3ccccc3)ccc12.[Br-] [Compound 8, 2-Benzyl-5-oxo-5H-thiochromeno[2,3-c]pyridin-2-ium bromide] | 260 ± 400 | 260 ± 80 |  |  | induced apoptosis |  |  |  |  |  |  | 6.7 ± 1.4 | 12.5 ± 1.7 | 21 | 26 | partial downregulation | partial downregulation | strong downregulation | less marked | caused degradation
